Where “and” joins values, the source holds several entries; their conditions need not be identical. Equal values may be shown once. Entries after “also recorded” stand apart in the source; their conditions may differ. Where a name gives a salt, the structure may show the parent alone. Read-outs that look alike come from different tables or passages of the source.
How the values were obtained:
[1] = tested on: Entamoeba histolytica HM1: IMSS c16 strain; test: Inhibition of proliferation of Entamoeba histolytica, anaerobic culture in 96-well plate, 72 hours, WST-1 (Example 2); type: cell-based; conditions: for IC50: Entamoeba histolytica, 0.25 to 20 μM, anaerobic culture, read-out: IC50 (concentration required to inhibit proliferation by 50% compared to untreated controls)
Experimental: (§1) The Entamoeba histolytica HM1: IMSS c16 strain was cultured for 18 hours in a medium containing each compound at a concentration of 80 μM. […] The cell number was measured by determining the number of living cells of Entamoeba histolytica using WST-1 (Roche Diagnostics K.K.).
The killing effects of each of the compounds: trifluoromethionine (TFM), trifluoromethionine amide (WY200), SK254, SK258, WY241, WY244, WY252, K010, SK276, SK316, SK336, and SK337 on Entamoeba histolytica HM1: IMSS c16 strain were examined. The Entamoeba histolytica HM1: IMSS c16 strain was anaerobically cultured in a medium containing each compound at a concentration of 0.25 to 20 μM in a 96-well plate: The number of cells after 72 hours was determined in the same way as Example 1. […] It was found from the results that many compounds including SK337 killed the Entamoeba histolytica protozoan at concentrations more than 10-fold lower than the concentration of trifluoromethionine.

[2] = tested on: Entamoeba histolytica HM1: IMSS c16 strain; test: Killing effect on Entamoeba histolytica, living cell number by WST-1 after 18 hours (Example 1, FIG. 1); type: cell-based; conditions: 80 μM, 18 hours culture
Experimental: as §1, with “The killing effect of each of the compounds: trifluoromethionine (TFM), trifluoromethionine amide (WY200), metronidazole (known anti-amoeba drug) on an Entamoeba histolytica HM1: IMSS c16 strain was examined. The Entamoeba” for “The Entamoeba”

[3] = tested on: Entamoeba histolytica HM1: IMSS c16 strain; conditions: for Total liver weight / Liver non-abscess portions / Liver abscess portions: individual hamsters A, B, C; for Liver abscess portions: dash = no abscess (total = non-abscess)
Experimental: Next, the compound of the present invention was evaluated in an animal infection experiment using a hamster liver abscess model. First, an Entamoeba histolytica HM1: IMSS c16 strain was injected to 3-week-old female hamsters to induce liver abscesses. […] In Table 2, A, B, and C in the respective groups show individual hamsters used. Many other compounds (trifluoromethionine, SK254, SK258, WY241, WY244, and WY252) were evaluated in animal infection experiments in the same way as Example 3.

[4] = intraperitoneal 3 μmol (1.1 to 1.3 mg) per hamster (body weight 28 to 37 g)
[5] = intraperitoneal 3 μmol per hamster
[6] = intraperitoneal 3 μmol (1.1 to 1.3 mg) per hamster (body weight 28 to 37 g), hydrochloride
[7] = intraperitoneal 3 μmol per hamster, hydrochloride

Row | Structure (SMILES) | IC50 [1] | Total liver weight [3, 4] | Liver non-abscess portions [3, 5] | other results
1 | NC(=O)[C@@H](N)CCSC(F)(F)F [WY200, trifluoromethionine amide] |  | A. 3,059 mg; also recorded: B. 1,624 mg | 3,059 mg and 1,624 mg | killing effect on Entamoeba histolytica (number of living cells) [2]: more effectively than trifluoromethionine; increase of total weights of the liver (in words) ([3]; intraperitoneal 40 μmol): did not increase the total weights of the liver; liver abscess formation (in words) ([3]; intraperitoneal 40 μmol): caused no liver abscess; Total liver weight ([3]; intraperitoneal 40 μmol, 3-week-old female hamsters): B. 2814 mg; also recorded: A. 2157 mg; Liver non-abscess portions ([3]; intraperitoneal 40 μmol): 2814 mg and 2145 mg
2 | COc1cc(NC(=O)[C@@H](N)CCSC(F)(F)F)cc(OC)c1.Cl [WY252, 1-(3,5-dimethoxy-phenylcarbamoyl)-3-trifluoromethylsulfanyl-propylammonium chloride] | 1.6 µM | A. 2,539 mg; also recorded: B. 3,338 mg; also recorded: C. 2,687 mg | 2,1204 mg and 3,338 mg and 2,687 mg | Liver abscess portions [3, 5]: 19 mg
3 | Cl.N[C@@H](CCSC(F)(F)F)C(=O)Nc1ccccc1 [SK258, (S)-2-amino-N-phenyl-4-(trifluoromethylthio)butanamide hydrochloride] | 2.5 µM |  |  | Total liver weight [3, 6]: A. 2,071 mg; also recorded: B. 2,768 mg; also recorded: C. 1,510 mg; Liver non-abscess portions [3, 7]: 2,071 mg and 2,768 mg and 1,510 mg
4 | N[C@@H](CCSC(F)(F)F)C(=O)NC1CCc2ccccc21 (stereo partly drawn) [SK276, (2S)-2-amino-N-(2,3-dihydro-1H-inden-1-yl)-4-(trifluoromethylthio) butanamide hydrochloride] | 6.8 µM |  |  | 
5 | COc1cc(NC(=O)[C@@H](N)CCSC(F)(F)F)cc(OC)c1OC [SK336, (S)-2-amino-N-(3,4,5-trimethoxyphenyl)-4-(trifluoromethylthio)butanamide hydrochloride] | 1.7 µM |  |  | 
6 | COc1ccc(NC(=O)[C@@H](N)CCSC(F)(F)F)cc1OC.Cl [SK337, (S)-2-amino-N-(3,4-dimethoxyphenyl)-4-(trifluoromethylthio)butanamide hydrochloride] | 1.5 µM |  |  | concentration lower than the concentration of trifluoromethionine ([1]; compared with trifluoromethionine): more than 10 fold
7 | N[C@@H](CCSC(F)(F)F)C(=O)O [TFM, trifluoromethionine, reference compound] | 17.2 µM | A. 2,240 mg; also recorded: B. 2,415 mg; also recorded: C. 2,575 mg | 2,240 mg and 2,415 mg and 2,575 mg | 

The remaining compounds from weak to strong by IC50 [1], led by results:

Row | IC50 [1] | Structure (SMILES) | Total liver weight [3, 4] | Liver non-abscess portions [3, 5] | other results
8 | 13.7 µM | NC(CSC(F)(F)F)C(=O)Nc1ccccc1 (stereo in doubt) [KO10, (S)-2-amino-N-phenyl-3-(trifluoromethylthio)propanamide hydrochloride] |  |  | 
9 | 11.8 µM | Cl.N[C@@H](CCSC(F)(F)F)C(=O)Nc1ccc(Br)cc1 [WY241, 1-(4-bromophenylcarbamoyl)-3-trifluoromethylsulfanyl-propyl-ammonium chloride] | A. 2,916 mg; also recorded: B. 2,371 mg; also recorded: C. 2,900 mg | 2,916 mg and 2,371 mg and 2,900 mg | 
10 | 8.9 µM | N[C@@H](CSC(F)(F)F)C(=O)NCc1ccccc1 [SK316, (R)-2-amino-N-benzyl-3-(trifluoromethylthio)propanamide hydrochloride] |  |  | 
11 | 5.5 µM | Cl.N[C@@H](CCSC(F)(F)F)C(=O)Nc1ccc(F)cc1F [WY244, 1-(2,4-difluoro-phenylcarbamoyl)-3-trifluoromethylsulfanyl-propyl-ammonium chloride] | A. 2,575 mg; also recorded: B. 2,181 mg; also recorded: C. 2,570 mg | 2,561 mg and 2,181 mg and 2,570 mg | Liver abscess portions [3, 5]: 14 mg
12 | 2.5 µM | Cl.N[C@@H](CCSC(F)(F)F)C(=O)NCc1ccccc1 [SK254, (S)-2-amino-N-benzyl-4-(trifluoromethylthio)butanamide hydrochloride] |  |  | Total liver weight [3, 6]: A. 2,318 mg; also recorded: B. 2,193 mg; also recorded: C. 2,386 mg; Liver non-abscess portions [3, 7]: 2,318 mg and 2,193 mg and 2,386 mg

Source: US7868206B2, “Trihalomethionine derivative and pharmaceutical product containing the same” (National University Corporation, Gunma University, priority 2005, dated 2011)
